# Source: paper PMC9719863 (Molecular Metabolism, 2022)
# Where no end group is shown, it is not given here.
# Tests used:
# mGIPR = biological target: T1, mGIPR (Mus musculus, UniProt Q0P543); experiment: cAMP CRE-luciferase assay in BHK cells expressing GIPR; type: cell-based; settings: agonist mode, without native ligand
# T1 sequence (Q0P543 19-460): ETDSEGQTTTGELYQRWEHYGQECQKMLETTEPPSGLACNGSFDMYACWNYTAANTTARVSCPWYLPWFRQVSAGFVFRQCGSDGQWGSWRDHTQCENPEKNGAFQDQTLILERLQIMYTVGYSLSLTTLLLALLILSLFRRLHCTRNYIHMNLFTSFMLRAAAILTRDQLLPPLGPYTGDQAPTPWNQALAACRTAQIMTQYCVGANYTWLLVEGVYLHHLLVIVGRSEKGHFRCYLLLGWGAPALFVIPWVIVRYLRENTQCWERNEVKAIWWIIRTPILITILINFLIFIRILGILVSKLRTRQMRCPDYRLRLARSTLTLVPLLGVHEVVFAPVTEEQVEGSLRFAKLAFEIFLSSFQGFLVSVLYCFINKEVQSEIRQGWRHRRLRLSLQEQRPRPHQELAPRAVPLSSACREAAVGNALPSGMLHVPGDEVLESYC
# hGIPR = biological target: T2, hGIPR (Homo sapiens, UniProt P48546); experiment: as above; type: cell-based; settings: agonist mode; for Agonism at the hGIPR (cAMP production by peptide alone): without native ligand
# T2 sequence (P48546 22-466): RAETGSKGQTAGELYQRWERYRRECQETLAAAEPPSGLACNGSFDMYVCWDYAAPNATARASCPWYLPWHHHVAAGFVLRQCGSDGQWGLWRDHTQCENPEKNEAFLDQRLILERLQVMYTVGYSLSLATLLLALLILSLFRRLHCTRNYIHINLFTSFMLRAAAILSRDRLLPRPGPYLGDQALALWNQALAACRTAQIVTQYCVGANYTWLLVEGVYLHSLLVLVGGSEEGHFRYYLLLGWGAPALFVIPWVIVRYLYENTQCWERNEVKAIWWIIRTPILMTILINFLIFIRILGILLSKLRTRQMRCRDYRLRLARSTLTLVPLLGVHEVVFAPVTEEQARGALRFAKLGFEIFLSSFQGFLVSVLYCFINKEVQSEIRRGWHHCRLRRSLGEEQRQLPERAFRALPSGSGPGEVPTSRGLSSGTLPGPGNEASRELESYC
# [1] = biological target: T3, human GIP receptor (human) (UniProt P48546)
# T3 sequence: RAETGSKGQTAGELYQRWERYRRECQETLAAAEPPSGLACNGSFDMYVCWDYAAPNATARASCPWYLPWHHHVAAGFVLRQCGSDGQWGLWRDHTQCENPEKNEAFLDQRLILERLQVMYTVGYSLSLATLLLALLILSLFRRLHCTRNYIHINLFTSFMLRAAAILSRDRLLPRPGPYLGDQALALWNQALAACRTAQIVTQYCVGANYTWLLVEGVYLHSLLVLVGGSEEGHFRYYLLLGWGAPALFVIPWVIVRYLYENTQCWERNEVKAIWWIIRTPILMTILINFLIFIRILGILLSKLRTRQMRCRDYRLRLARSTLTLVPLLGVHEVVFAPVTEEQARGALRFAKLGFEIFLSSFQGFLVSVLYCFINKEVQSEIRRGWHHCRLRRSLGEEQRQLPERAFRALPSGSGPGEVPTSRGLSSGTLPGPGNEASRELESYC
# [2] = biological target: T4, mouse GIP receptor (mouse) (UniProt Q0P543)
# T4 sequence: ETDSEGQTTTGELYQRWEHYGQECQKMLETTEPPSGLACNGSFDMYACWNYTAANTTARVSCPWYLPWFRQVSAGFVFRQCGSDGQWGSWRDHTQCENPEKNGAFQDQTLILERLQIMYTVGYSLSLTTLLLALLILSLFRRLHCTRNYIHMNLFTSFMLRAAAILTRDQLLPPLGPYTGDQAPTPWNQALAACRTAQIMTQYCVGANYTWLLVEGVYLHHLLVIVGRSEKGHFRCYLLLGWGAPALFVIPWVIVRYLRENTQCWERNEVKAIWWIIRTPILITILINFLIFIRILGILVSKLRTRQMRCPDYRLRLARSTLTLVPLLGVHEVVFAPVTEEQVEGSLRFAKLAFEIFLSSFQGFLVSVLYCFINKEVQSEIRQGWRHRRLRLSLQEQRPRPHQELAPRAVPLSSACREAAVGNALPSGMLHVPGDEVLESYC
compound,measurement,setting,value
"CCCCCCCCCCCCCCCC(=O)N[C@@H](CCC(=O)NCCCC[C@H](NC(=O)[C@H](Cc1ccc(O)cc1)NC(=O)[C@H](CC(=O)O)NC(=O)[C@H](CO)NC(=O)[C@@H](NC(=O)[C@H](Cc1ccccc1)NC(=O)[C@@H](NC(=O)CNC(=O)[C@@H](N)CCC(=O)O)[C@@H](C)O)[C@@H](C)CC)C(=O)N[C@H](C(=O)N[C@@H](C)C(=O)N[C@@H](CC(C)C)C(=O)N[C@@H](CC(=O)O)C(=O)N[C@@H](CCCCN)C(=O)N[C@H](C(=O)N[C@@H](CCCNC(=N)N)C(=O)N[C@@H](CCC(N)=O)C(=O)N[C@@H](CCC(N)=O)C(=O)N[C@@H](CCC(=O)O)C(=O)N[C@@H](Cc1ccccc1)C(=O)N[C@H](C(=O)N[C@@H](CC(N)=O)C(=O)N[C@@H](Cc1c[nH]c2ccccc12)C(=O)N[C@@H](CC(C)C)C(=O)N[C@@H](CC(C)C)C(=O)N[C@@H](C)C(=O)N[C@@H](CCC(N)=O)C(=O)N[C@@H](CCCCN)C(N)=O)C(C)C)[C@@H](C)CC)[C@@H](C)CC)C(=O)O [Peptide 6, [L14, R18, E21] hGIP(3–30)-K11 (γE-C16)]",Agonism at the mGIPR (cAMP production by peptide alone),mGIPR,negligible cAMP production as agonists
same,Agonism at the hGIPR (cAMP production by peptide alone),hGIPR,negligible cAMP production as agonists
"CC[C@H](C)[C@H](NC(=O)[C@H](CO)NC(=O)[C@H](Cc1ccc(O)cc1)NC(=O)[C@H](CC(=O)O)NC(=O)[C@H](CO)NC(=O)[C@@H](NC(=O)[C@H](Cc1ccccc1)NC(=O)[C@@H](NC(=O)CNC(=O)[C@H](CCC(=O)O)NC(=O)[C@H](C)NC(=O)[C@@H](N)Cc1ccc(O)cc1)[C@@H](C)O)[C@@H](C)CC)C(=O)N[C@@H](C)C(=O)N[C@@H](CCSC)C(=O)N[C@@H](CC(=O)O)C(=O)N[C@@H](CCCCN)C(=O)N[C@H](C(=O)N[C@@H](CCCNC(=N)N)C(=O)N[C@@H](CCC(N)=O)C(=O)N[C@@H](CCC(N)=O)C(=O)N[C@@H](CC(=O)O)C(=O)N[C@@H](Cc1ccccc1)C(=O)N[C@H](C(=O)N[C@@H](CC(N)=O)C(=O)N[C@@H](Cc1c[nH]c2ccccc12)C(=O)N[C@@H](CC(C)C)C(=O)N[C@@H](CC(C)C)C(=O)N[C@@H](C)C(=O)N[C@@H](CCC(N)=O)C(=O)N[C@@H](CCCNC(=N)N)C(=O)NCC(=O)N[C@@H](CCCCN)C(=O)N[C@@H](CCCCN)C(=O)N[C@@H](CO)C(=O)N[C@@H](CC(=O)O)C(=O)N[C@@H](Cc1c[nH]c2ccccc12)C(=O)N[C@@H](CCCCN)C(=O)N[C@@H](Cc1c[nH]cn1)C(=O)N[C@@H](CC(N)=O)C(=O)N[C@H](C(=O)N[C@H](C(=O)N[C@@H](CCC(N)=O)C(=O)O)[C@@H](C)O)[C@@H](C)CC)C(C)C)[C@@H](C)CC [mGIP, reference compound]",EC50,"hGIPR; cAMP EC50, hGIPR, native ligand, Table 1",0.01 nM
"EGTFISDYSIALDKIRQQEFVNWLLAQK-NH2 [Peptide 2, [L14, R18, E21] hGIP(3–30)]",Agonism at the mGIPR (cAMP production by peptide alone),mGIPR,no significant agonism
same,Agonism at the hGIPR (cAMP production by peptide alone),hGIPR,partial agonism
"FISDYSIALDKIRQQEFVNWLLAQKG [Peptide 4, [L14, R18, E21] hGIP(6–31)]",Agonism at the mGIPR (cAMP production by peptide alone),mGIPR,no significant agonism
same,Agonism at the hGIPR (cAMP production by peptide alone),hGIPR,partial agonism
"TFISDYSIALDKIRQQEFVNWLLAQKG [Peptide 3, [L14, R18, E21] hGIP(5–31)]",Agonism at the mGIPR (cAMP production by peptide alone),mGIPR,no significant agonism
same,Agonism at the hGIPR (cAMP production by peptide alone),hGIPR,partial agonism
"[Pla6, L14, R18, E21] hGIP(6-31) (peptide)",maximal % inhibition of GIP-induced cAMP in BHK cells expressing hGIPR,[1],98%
same,maximal % inhibition of GIP-induced cAMP in BHK cells expressing mGIPR,[2],99%
"[Pla6, L14, R18, E21] hGIP(6-31)-K11 (γE-C16) (peptide)",maximal % inhibition of GIP-induced cAMP in BHK cells expressing hGIPR,[1],100%
same,maximal % inhibition of GIP-induced cAMP in BHK cells expressing mGIPR,[2],99%
mouse GIP (from UniProt P48756 44-85) (ligand),EC50 of cAMP production (CRE-luciferase) in BHK cells expressing hGIPR,[1],0.01 nM
